# Assay results from ChEMBL document CHEMBL5126521, “Analgesic Opioid Ligand Discovery Based on Nonmorphinan Scaffolds Derived from Natural Sources” (J Med Chem, 2022).
# Bridge positions count the residues as written; N and C are the ends. Square brackets hold non-standard residues; d marks the D form. Peptide text beside a SMILES is read from it. d1Nal = N[C@H](Cc1cccc2ccccc12)C(=O)O; d2Nal = N[C@H](Cc1ccc2ccccc2c1)C(=O)O; Dmt = Cc1cc(O)cc(C)c1C[C@H](N)C(=O)O
# Experiments:
# [1] = target: T1, Delta-type opioid receptor (Mus musculus, UniProt P32300); assay: Displacement of [3H]DPDPE from mouse DOP stably expressed in CHO cell membrane; assay type: cell membranes
# [2] = target: T2, Kappa-type opioid receptor (Rattus norvegicus, UniProt P34975); assay: Displacement of [3H]diprenorphine from rat KOP stably expressed in CHO cell membrane; assay type: cell membranes
# [3] = target: T3, Mu-type opioid receptor (Homo sapiens, UniProt P35372); assay: Antagonist activity at human MOP stably expressed in CHO cell membrane assessed as [35S]GTPgammaS binding; assay type: functional, cell membranes
# [4] = test system: Mus musculus; assay: Antinociceptive activity in icv dosed C57BL/6J mouse assessed as tail withdrawal latency from warm water; assay type: functional
# [5] = target: Mu-type opioid receptor (Rattus norvegicus, UniProt P33535); assay: Displacement of [3H]DAMGO from rat MOP stably expressed in CHO cell membrane; assay type: cell membranes
# [6] = target: T4, Kappa-type opioid receptor (Homo sapiens, UniProt P41145); assay: Antagonist activity at human KOP stably expressed in CHO cell membrane assessed as [35S]GTPgammaS binding; assay type: functional, cell membranes
# [7] = test system: Rattus norvegicus; assay: Antinociceptive activity in Sprague-Dawley rat assessed as tail flick response in warm water administered iv; assay type: functional
# [8] = target: T3, Mu-type opioid receptor; assay: Agonist activity at human MOP expressed in CHO-K1 cell membrane assessed as [35S]GTPgammaS binding; assay type: functional, cell membranes
# [9] = target: T3, Mu-type opioid receptor; assay: Agonist activity at human MOP expressed in CHO-K1 cell membrane assessed as [35S]GTPgammaS binding relative to control; assay type: functional, cell membranes; details: filed as agonist
# [10] = test system: Rattus norvegicus; assay: Antinociceptive activity in Sprague-Dawley rat assessed as tail flick response in warm water administered icv; assay type: functional
# [11] = Stability in rat plasma assessed as half life; assay type: ADME, cell-free
# [12] = target: T5, Delta-type opioid receptor (Homo sapiens, UniProt P41143); assay: Displacement of [3H]DPDPE from human DOP expressed in CHO-K1 cell membrane incubated for 60 mins by Microscint-counting analysis; assay type: cell membranes
# [13] = target: T4, Kappa-type opioid receptor; assay: Displacement of [3H]U69593 from human KOP expressed in CHO-K1 cell membrane incubated for 60 mins by Microscint-counting analysis; assay type: cell membranes
# [14] = Stability in human plasma assessed as half life; assay type: ADME, cell-free
# [15] = target: T3, Mu-type opioid receptor; assay: Displacement of [3H]DAMGO from human MOP expressed in CHO-K1 cell membrane incubated for 60 mins by Microscint-counting analysis; assay type: cell membranes
# [16] = test system: Mus musculus; assay: Antinociceptive activity in mouse administered sc by tail pressure test; assay type: functional
# [17] = target: T6, Mu-type opioid receptor (Mus musculus, UniProt P42866); assay: Displacement of [3H]DAMGO from mouse spinal cord MOP measured after 60 mins by liquid scintillation counter analysis; assay type: tissue-based
# [18] = target: Kappa-type opioid receptor (Mus musculus, UniProt P33534); assay: Displacement of [3H]U-69593 from mouse spinal cord KOP measured after 60 mins by liquid scintillation counter analysis; assay type: tissue-based
# [19] = species: Mus musculus; assay: Antinociceptive activity in mouse […]; assay type: functional; details: time 2 hrs
# [20] = test system: Mus musculus; assay: Antinociceptive activity in mouse administered po by tail pressure test; assay type: functional
# [21] = target: T1, Delta-type opioid receptor; assay: Displacement of [3H]deltorphin-II from mouse spinal cord DOP measured after 60 mins by liquid scintillation counter analysis; assay type: tissue-based
# [22] = test system: Mus musculus; assay: Antinociceptive activity in mechanical allodynia mouse model administered sc; assay type: functional
# [23] = target: T5, Delta-type opioid receptor; assay: Binding affinity to DOP (unknown origin)
# [24] = target: T6, Mu-type opioid receptor; assay: Antagonist activity at mouse vas deferns MOP; assay type: functional
# [25] = test system: Mus musculus; assay: Antinociceptive activity in thermal hyperalgesia mouse model administered sc; assay type: functional
# [26] = target: T3, Mu-type opioid receptor; assay: Binding affinity to MOP (unknown origin)
# [27] = test system: Rattus norvegicus; assay: Antinociceptive activity in rat administered IT; assay type: functional
# [28] = test system: Rattus norvegicus; assay: Antinociceptive activity in rat administered iv; assay type: functional
# [29] = test system: Mus musculus; assay: Antinociceptive activity in mouse administered icv; assay type: functional
# [30] = species: Mus musculus; assay: Antinociceptive activity in mouse by tail pressure test; assay type: functional; details: Mus musculus; read-out: ED50
# [31] = test system: Mus musculus; assay: Antinociceptive activity in mouse assessed as tail-flick latency administered icv […]; assay type: functional
# [32] = species: Rattus norvegicus; assay: Antinociceptive activity in rat; assay type: functional; details: Rattus norvegicus; read-out: ED50
# [33] = species: Mus musculus; assay: Antinociceptive activity in mouse by hot plate test
# [34] = test system: Mus musculus; assay: Antinociceptive activity in mouse administered icv by tail pressure test; assay type: functional
# [35] = test system: Rattus norvegicus; assay: Antinociceptive activity in rat at 2.5 to 5 mg/kg, icv
# [36] = test system: Mus musculus; assay: Antinociceptive activity in mouse administered IT by tail pressure test; assay type: functional
# [37] = target: T4, Kappa-type opioid receptor; assay: Binding affinity to human KOP stably expressed in CHO cell membrane assessed as [35S]GTPgammaS binding; assay type: cell membranes; details: filed as antagonist
# [38] = test system: Mus musculus; assay: Antinociceptive activity in Swiss albino mouse assessed tail flick response in warm water administered icv; assay type: functional
# [39] = target: T2, Kappa-type opioid receptor; assay: Displacement of [3H]-norBNI from Wistar rat brain membrane KOP; assay type: cell membranes
# [40] = target: T2, Kappa-type opioid receptor; assay: Inhibition of Wistar rat brain membrane KOP; assay type: cell membranes
# [41] = target: Mu-type opioid receptor (Cavia porcellus, UniProt P97266); assay: Antagonist activity at guinea pig ileum MOP; assay type: functional, tissue-based
# Mu-type opioid receptor (Cavia porcellus, UniProt P97266), sequence (P97266 whole entry): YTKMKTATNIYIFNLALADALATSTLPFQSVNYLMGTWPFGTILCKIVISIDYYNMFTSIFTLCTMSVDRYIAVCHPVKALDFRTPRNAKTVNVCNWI
# T3 sequence (P35372 whole entry): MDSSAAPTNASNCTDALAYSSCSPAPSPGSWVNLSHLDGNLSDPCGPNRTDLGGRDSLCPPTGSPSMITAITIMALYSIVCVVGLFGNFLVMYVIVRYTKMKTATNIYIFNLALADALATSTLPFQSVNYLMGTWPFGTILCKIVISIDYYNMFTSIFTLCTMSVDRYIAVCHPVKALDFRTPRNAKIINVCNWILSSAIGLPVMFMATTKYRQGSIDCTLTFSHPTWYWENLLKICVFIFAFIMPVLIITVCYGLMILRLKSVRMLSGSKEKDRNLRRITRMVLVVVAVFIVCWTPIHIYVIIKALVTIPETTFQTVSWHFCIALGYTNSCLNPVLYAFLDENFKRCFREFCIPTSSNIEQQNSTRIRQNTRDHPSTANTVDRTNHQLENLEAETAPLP
# T2 sequence (P34975 whole entry): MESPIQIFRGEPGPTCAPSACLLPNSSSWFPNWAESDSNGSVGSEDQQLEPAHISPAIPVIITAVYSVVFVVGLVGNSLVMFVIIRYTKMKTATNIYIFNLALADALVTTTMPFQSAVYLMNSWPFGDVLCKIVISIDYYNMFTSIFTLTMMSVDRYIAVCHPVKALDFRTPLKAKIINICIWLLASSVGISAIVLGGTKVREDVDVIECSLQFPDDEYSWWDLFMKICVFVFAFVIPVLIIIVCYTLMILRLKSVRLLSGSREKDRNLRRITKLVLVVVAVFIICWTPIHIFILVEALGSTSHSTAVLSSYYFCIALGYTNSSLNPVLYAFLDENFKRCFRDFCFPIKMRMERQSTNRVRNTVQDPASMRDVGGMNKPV
# T4 sequence (P41145 whole entry): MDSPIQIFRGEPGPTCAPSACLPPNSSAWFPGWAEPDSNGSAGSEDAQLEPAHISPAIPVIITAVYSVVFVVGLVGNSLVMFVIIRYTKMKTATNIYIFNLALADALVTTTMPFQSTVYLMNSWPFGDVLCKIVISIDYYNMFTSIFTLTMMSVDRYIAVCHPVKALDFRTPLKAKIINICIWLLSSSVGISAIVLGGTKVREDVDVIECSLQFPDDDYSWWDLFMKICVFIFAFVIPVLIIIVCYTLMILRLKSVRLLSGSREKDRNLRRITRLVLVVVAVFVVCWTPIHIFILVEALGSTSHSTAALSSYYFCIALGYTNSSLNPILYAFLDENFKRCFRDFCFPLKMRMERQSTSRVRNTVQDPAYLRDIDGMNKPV
# Mu-type opioid receptor (Rattus norvegicus, UniProt P33535), sequence (P33535 whole entry): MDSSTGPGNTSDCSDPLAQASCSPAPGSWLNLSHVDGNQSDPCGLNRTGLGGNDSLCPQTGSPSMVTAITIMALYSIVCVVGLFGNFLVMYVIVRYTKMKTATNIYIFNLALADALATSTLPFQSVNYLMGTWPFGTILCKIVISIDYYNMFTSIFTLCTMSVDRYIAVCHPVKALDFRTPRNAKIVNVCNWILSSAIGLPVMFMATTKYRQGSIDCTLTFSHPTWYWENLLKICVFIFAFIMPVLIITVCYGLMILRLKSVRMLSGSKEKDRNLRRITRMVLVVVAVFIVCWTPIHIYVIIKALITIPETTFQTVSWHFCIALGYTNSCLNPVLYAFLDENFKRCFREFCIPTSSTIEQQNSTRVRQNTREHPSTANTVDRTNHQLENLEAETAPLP
# T1 sequence (P32300 whole entry): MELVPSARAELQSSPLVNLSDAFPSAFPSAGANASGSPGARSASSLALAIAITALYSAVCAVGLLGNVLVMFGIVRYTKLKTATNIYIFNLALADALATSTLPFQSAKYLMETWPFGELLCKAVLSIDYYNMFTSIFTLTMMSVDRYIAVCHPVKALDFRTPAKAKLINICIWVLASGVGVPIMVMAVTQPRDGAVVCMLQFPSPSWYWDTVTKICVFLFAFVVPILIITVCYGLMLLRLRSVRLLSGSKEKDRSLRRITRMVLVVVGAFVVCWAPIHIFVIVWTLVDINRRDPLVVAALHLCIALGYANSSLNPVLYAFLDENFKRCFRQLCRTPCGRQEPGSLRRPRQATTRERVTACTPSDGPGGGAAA
# T6 sequence (P42866 whole entry): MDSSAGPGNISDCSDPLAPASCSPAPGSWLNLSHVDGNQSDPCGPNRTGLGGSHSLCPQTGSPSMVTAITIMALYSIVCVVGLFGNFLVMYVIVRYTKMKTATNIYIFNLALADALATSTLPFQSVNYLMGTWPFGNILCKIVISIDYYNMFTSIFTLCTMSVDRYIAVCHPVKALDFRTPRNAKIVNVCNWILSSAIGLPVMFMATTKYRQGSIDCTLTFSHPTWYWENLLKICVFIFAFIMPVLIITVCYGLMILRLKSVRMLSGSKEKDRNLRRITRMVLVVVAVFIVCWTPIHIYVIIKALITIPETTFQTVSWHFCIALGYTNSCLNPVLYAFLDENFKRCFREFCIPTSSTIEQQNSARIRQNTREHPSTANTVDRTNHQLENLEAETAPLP
# T5 sequence (P41143 whole entry): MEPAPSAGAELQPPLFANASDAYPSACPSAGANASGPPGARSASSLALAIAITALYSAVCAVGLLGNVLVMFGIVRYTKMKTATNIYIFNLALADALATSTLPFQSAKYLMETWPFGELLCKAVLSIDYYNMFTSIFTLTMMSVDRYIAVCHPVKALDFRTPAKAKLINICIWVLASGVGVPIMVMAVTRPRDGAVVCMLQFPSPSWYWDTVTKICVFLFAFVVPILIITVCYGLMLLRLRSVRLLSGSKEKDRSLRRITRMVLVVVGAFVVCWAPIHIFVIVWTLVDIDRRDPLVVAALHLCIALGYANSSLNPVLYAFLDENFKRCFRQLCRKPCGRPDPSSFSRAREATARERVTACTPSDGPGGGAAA
# Kappa-type opioid receptor (Mus musculus, UniProt P33534), sequence (P33534 whole entry): as the sequence (P34975 whole entry) above, with E11D, A17S, P51S, V308A counted along it
compound,measurement,setting,value
C[C@@H]1NC(=O)[C@H]2CCCN2C(=O)[C@H](Cc2ccccc2)NC(=O)[C@@H](Cc2c[nH]c3ccccc23)NC1=O,Ki,[1],10 µM
same,Ki,[2],167 nM
same,IC50,[3],1470 nM
same,ED50,[4],1.04 nmol
same,Ki,[5],299 nM
same,IC50,[6],397 nM
NC(=O)CNC(=O)[C@@H]1CCC(=O)NCCCC[C@@H](NC(=O)[C@@H](N)Cc2ccc(O)cc2)C(=O)N[C@@H](Cc2c[nH]c3ccccc23)C(=O)N[C@@H](Cc2ccccc2)C(=O)N1,ED50,[7],1.5 mg/kg
same,EC50,[8],1.01 nM
same,Emax,[9],100%
same,ED50,[10],0.019 nmol
same,half-life,[11],3.38 days
same,Ki,[12],127 nM
same,Ki,[13],5.12 µM
same,half-life,[14],6.25 days
same,Ki,[15],0.68 nM
CN(CCC(=O)O)C(=O)[C@H](Cc1ccccc1)NC(=O)[C@@H](CCCNC(=N)N)NC(=O)[C@H](Cc1ccc(O)cc1)NC(=N)N,ED50,[16],0.09 mg/kg
same,Ki,[17],12.9 nM
same,Ki,[18],> 1000 nM
same,ED50,[19],0.07 mg/kg
same,ED50,[20],5.8 mg/kg
same,Ki,[21],> 1000 nM
NCCCC[C@H](NC(=O)[C@H](Cc1ccccc1)NC(=O)[C@@H](CCCN=C(N)N)NC(=O)[C@@H](N)Cc1ccc(O)cc1)C(N)=O,ED50,[22],4.2 pmol
same,Ki,[23],19.2 µM
same,IC50,[24],781 nM
same,ED50,[25],0.06 pmol
same,Ki,[26],0.14 nM
same,ED50,[27],2.37 pmol
CN1CC[C@]23c4c5ccc(O)c4O[C@H]2[C@@H](O)C=C[C@H]3[C@H]1C5 [MORPHINE],ED50,[16],12.2 µmol/kg
same,ED50,[28],1.6 µmol/kg
same,ED50,[29],8.7 nmol
same,ED50,[30],77.2 µmol/kg
same,ED50,[31],17.3 nmol
same,ED50,[32],5.8 µmol/kg
same,ED50,[33],11.3 µmol/kg
same,ED50,[34],1.05 nmol
same,ED50,[35],169 µmol/kg
same,ED50,[36],0.72 pmol
C[C@@H]1C(=O)N[C@@H](Cc2ccccc2)C(=O)N[C@H](Cc2c[nH]c3ccccc23)C(=O)N[C@@H](Cc2ccccc2)C(=O)N1C,Kb,[37],103 nM
same,Ki,[2],76.9 nM
same,IC50,[3],321 nM
same,ED50,[4],4.19 nmol
same,Ki,[5],257 nM
Cc1cc(O)cc(C)c1C[C@H](N)C(=O)N[C@@H]1CCCCNC(=O)C[C@@H](C(N)=O)NC(=O)[C@@H](Cc2ccc3ccccc3c2)NC(=O)[C@H](Cc2ccccc2)NC1=O (H-[Dmt][dK]F[d2Nal]D-NH2; lactam 2-5),ED50,[38],0.08 µg
same,Ki,[39],1.02 nM
NC(=O)[C@@H]1CC(=O)NCCCC[C@@H](NC(=O)[C@@H](N)Cc2ccc(O)cc2)C(=O)N[C@@H](Cc2ccccc2)C(=O)N[C@@H](Cc2ccccc2)C(=O)N1 (H-Y[dK]FFD-NH2; lactam 2-5),ED50,[38],0.06 nmol
same,IC50,[40],2.36 nM
N=C(N)NCCC[C@@H](NC(=O)[C@@H](N)Cc1ccc(O)cc1)C(=O)N[C@@H](Cc1ccccc1)C(N)=O,ED50,[16],1 µmol/kg
same,ED50,[29],0.21 nmol
same,IC50,[41],240 nM
same,ED50,[20],103 µmol/kg
Cc1cc(O)cc(C)c1C[C@H](N)C(=O)N[C@@H]1CCCCNC(=O)C[C@@H](C(N)=O)NC(=O)[C@@H](Cc2cccc3ccccc23)NC(=O)[C@H](Cc2ccccc2)NC1=O (H-[Dmt][dK]F[d1Nal]D-NH2; lactam 2-5),ED50,[38],0.06 µg
same,Ki,[39],1.78 nM
